{"source": "paper PMC3660741", "about": "“Structure of a pore-blocking toxin in complex with a eukaryotic voltage-dependent K^+ channel” (eLife, 2013)", "key": {"paddle chimera": {"target": "paddle chimera", "settings": "planar lipid bilayers; ref Tao and MacKinnon, 2008; read-out: Kd (inhibition of paddle chimera); cited from earlier work"}, "[1]": {"target": "T1, Kv2.1 paddle–Kv1.2 chimera channel (paddle chimera) (Rattus norvegicus, UniProt P63142, DEL270-295/F267Y/F302L/I268V/INS296[…]/L298I/N207Q/V299M/V301I)", "T1 construct": "made in house; host or cells: Pichia pastoris", "T1 sequence (P63142 with tags, fused parts or gaps with the stated changes)": "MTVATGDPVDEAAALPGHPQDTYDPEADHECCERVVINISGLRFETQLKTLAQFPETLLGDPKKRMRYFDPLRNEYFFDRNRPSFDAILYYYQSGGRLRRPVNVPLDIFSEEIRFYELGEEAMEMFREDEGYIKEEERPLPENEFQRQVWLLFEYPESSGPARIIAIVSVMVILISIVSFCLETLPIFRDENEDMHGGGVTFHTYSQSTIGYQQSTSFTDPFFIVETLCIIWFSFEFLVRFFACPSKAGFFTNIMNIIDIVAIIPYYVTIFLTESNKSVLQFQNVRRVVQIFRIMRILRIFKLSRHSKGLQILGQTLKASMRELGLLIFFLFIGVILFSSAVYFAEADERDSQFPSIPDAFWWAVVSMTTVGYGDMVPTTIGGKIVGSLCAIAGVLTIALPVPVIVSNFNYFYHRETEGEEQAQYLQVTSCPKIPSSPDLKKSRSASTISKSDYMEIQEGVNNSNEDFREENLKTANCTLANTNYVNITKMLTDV", "T1 sequence (P62483 36-367 partner limits assumed)": "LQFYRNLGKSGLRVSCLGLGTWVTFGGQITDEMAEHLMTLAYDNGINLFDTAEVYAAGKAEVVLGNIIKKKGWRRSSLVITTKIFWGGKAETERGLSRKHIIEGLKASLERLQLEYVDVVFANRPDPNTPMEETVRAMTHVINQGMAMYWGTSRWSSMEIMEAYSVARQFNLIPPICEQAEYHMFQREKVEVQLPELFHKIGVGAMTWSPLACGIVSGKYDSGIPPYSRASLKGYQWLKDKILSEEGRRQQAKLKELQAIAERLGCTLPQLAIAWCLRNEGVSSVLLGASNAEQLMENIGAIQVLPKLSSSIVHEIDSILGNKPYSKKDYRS", "test": "CTX inhibition of paddle chimera in planar lipid bilayer, dose-response fitted for Kd", "assay_type": "biochemical", "settings": "CsCl vs KCl on both sides; planar bilayer of 20 mg/ml DPhPC; holding −110 mV, pulsed to +110 mV; n = 2–4", "text": "Figure 8. Effects of Lys27Met mutation of CTX and Cs^+ separately on toxin-channel interactions. (A) CTX inhibition. The fraction of unblocked current (I/Imax, mean ± SEM or range of mean; n = 2–4) is graphed as a function of CTX concentration (in nM) and fit to the equation I/Imax = 0.1 + 0.9 × (1 + [CTX]/Kd)^−1. Voltage pulses: holding −110 mV, depolarized to +110 mV, followed by a step back to −110 mV. Paddle chimera–wild-type CTX with KCl on both sides is shown in red, paddle chimera–wild-type CTX with CsCl on both sides is shown in blue and paddle chimera–Lys27Met CTX with KCl on both sides is shown in black. The modified equation accounts for approximately 10% current that is due largely to the channels facing the other side and are not blocked by toxin. (B) The pore domains from two diagonal subunits of paddle chimera (molecule A) in the Lys27MetCTX–paddle chimera complex are shown in green α carbon trace and a toxin-omit weighted 2Fo − Fc electron density map is shown in wire mesh at 1σ contour level. […]\nThe membranes were held at −110 mV and repeatedly pulsed to +110 mV test voltage. CTX inhibition data measured with different concentrations of CTX or Lys27Met mutant of CTX were fit to the equation: I/Imax=0.1+0.9×(1+[CTX]/Kd)^−1. […]"}, "BK channel": {"system": "BK channel", "settings": "1988, cited from earlier work", "text": "Charybdotoxin (CTX; Figure 1B), a pore-blocking toxin for K^+ channels, is a 37-residue peptide isolated from the venom of the scorpion Leiurus quinquestriatus ([Miller et al., 1985])."}, "Shaker K+ channel": {"system": "Shaker K+ channel", "settings": "cited from earlier work", "text": "In studies with the BK channel, [MacKinnon and Miller (1988)] first observed that permeant ions coming through the channel from the intracellular side enhance the dissociation of a toxin bound to its receptor on the extracellular side."}, "Tyr445Phe(Shaker)": {"system": "Tyr445Phe(Shaker)", "settings": "ref Ranganathan et al., 1996, cited from earlier work", "text": "Another case worth highlighting is the coupling energy, ∼1.5 kT, between the Lys27Met(AgTx2)–Tyr445Phe(Shaker) pair. Tyr445 in Shaker maps to Tyr373 in paddle chimera (Figure 2B; [Ranganathan et al., 1996]). Since mutation of Tyr to Phe incurs only a loss of the hydroxyl group, one likely interpretation of this would have been that Lys27 contacts the hydroxyl group of Tyr445. Intriguingly, Lys27 only contacts the backbone carbonyl oxygen of Tyr445, a point farthest from the hydroxyl group (Figure 10B). However, since this is a tightly packed part of the protein structure with the hydroxyl grou ..."}, "[2]": {"target": "Kv2.1 paddle–Kv1.2 chimera channel in complex with the rat β2-core subunit (rat) (UniProt P63142)", "test": "planar lipid bilayer electrophysiology (inhibition of channel current)"}, "Thr449Cys(Shaker)": {"system": "Thr449Cys(Shaker)", "settings": "Gly10Val(AgTx2)–Thr449Cys(Shaker) pair; ref Ranganathan et al., 1996; cited from earlier work", "text": "(§1) From analyzing mutants of AgTx2 and Shaker, MacKinnon and Ranganathan derived a coupling energy of >3 kT for the Gly10Val(AgTx2)–Phe425Gly(Shaker) pair and ∼1.5 kT for the Gly10Val(AgTx2)–Thr449Cys(Shaker) pair ([Ranganathan et al., 1996]). Phe425 and Thr449 in Shaker map onto Gln353 and Val377 in paddle chimera (Figure 2B)."}, "Phe425Gly(Shaker)": {"system": "Phe425Gly(Shaker)", "settings": "Gly10Val(AgTx2)–Phe425Gly(Shaker) pair; ref Ranganathan et al., 1996; cited from earlier work", "text": "as §1"}}}
{"substance": "charybdotoxin [CTX]", "values": [{"measurement": "Kd", "setting": "paddle chimera", "result": "~20", "unit": "nM"}, {"measurement": "reduction in affinity in the presence of Cs+ compared to K+", "setting": "[1]", "result": "~10", "unit": "fold"}, {"measurement": "channel states competent for toxin binding", "setting": "BK channel; ref Anderson et al.", "result": "both the open and closed states of the channel are competent for toxin binding"}, {"measurement": "role of electrostatic interactions in affinity", "setting": "BK channel; ref Anderson et al.", "result": "electrostatic interactions play an important role in enhancing the toxin’s affinity"}, {"measurement": "voltage dependence of affinity", "setting": "BK channel; results from trans-enhanced dissociation by permeant ions entering from the intracellular side, ref MacKinnon and Miller", "result": "voltage dependent"}, {"measurement": "trans-enhanced dissociation effect of permeant ions on CTX block", "setting": "Shaker K+ channel; ref Goldstein and Miller, 1993", "result": "subsequently confirmed for Shaker as well"}]}
{"substance": "Lys27Met(AgTx2): Lys27Met mutant of AgTx2 (Ranganathan et al., 1996)", "values": [{"measurement": "K+ dependence of the interaction between the two residues", "setting": "Tyr445Phe(Shaker); Lys27 (AgTx2) and Tyr445 (Shaker)", "result": "dependent on the K^+ concentration"}, {"measurement": "coupling energy", "setting": "Tyr445Phe(Shaker); Lys27Met(AgTx2)–Tyr445Phe(Shaker) pair", "result": "~1.5", "unit": "kT"}]}
{"substance": "charybdotoxin, wild type (from UniProt P13487 23-59) (peptide)", "values": [{"measurement": "fold reduction of affinity in Cs+ against K+", "setting": "[2]", "result": 10, "unit": "fold"}]}
{"substance": "mutation of Lys27 to Arginine: conservative mutation of Lys27 to Arginine, literature CTX mutant (Goldstein et al., 1994)", "values": [{"measurement": "destabilization of the toxin-channel complex", "setting": "Shaker K+ channel; conservative mutation of Lys27 to Arginine, Shaker, ref Goldstein et al., 1994", "result": "~1000", "unit": "fold"}]}
{"substance": "Gly10Val(AgTx2): Gly10Val mutant of AgTx2 (Ranganathan et al., 1996)", "values": [{"measurement": "coupling energy", "setting": "Thr449Cys(Shaker)", "result": "~1.5", "unit": "kT"}, {"measurement": "coupling energy", "setting": "Phe425Gly(Shaker)", "result": "> 3", "unit": "kT"}]}
